Source: US12558428B2, “Heterobifunctional compounds and their use in treating disease” (Halda Therapeutics OpCo, Inc., priority 2024, dated 2026)

Experiments:
BRD4-BD1 = molecular target: T1, BRD4-BD1 (Homo sapiens, UniProt O60885); test: Binding affinity to BRD4-BD1 (bromoKdELECT assay)
T1 construct: made in house; host or cells: T7 phage grown in E. coli host derived from BL21
Description: Exemplary compounds were tested for ability to bind to BRD4-BD 1.
Compounds were tested using a bromoKdELECT assay. T7 phage strains displaying bromodomains were grown in parallel in 24-well blocks in an E. coli host derived from the BL21 strain. E. coli were grown to log-phase and infected with T7 phage from a frozen stock (multiplicity of infection=0.4) and incubated with shaking at 32° C. until lysis (90-150 minutes). The lysates were centrifuged (5,000×g) and filtered ([…]) to remove cell debris. […] The liganded beads were blocked with excess biotin and washed with blocking buffer (SeaBlock (Pierce), 1% BSA, 0.05% Tween 20, 1 mM DTT) to remove unbound ligand and to reduce nonspecific phage binding. […] Test compounds were prepared as 1000× stocks in 100% DMSO. Kds were determined using an 11-point 3-fold compound dilution series with one DMSO control point. […] The compounds were then diluted directly into the assays such that the final concentration of DMSO was 0.09%. All reactions performed in polypropylene 384-well plates. Each was a final volume of 0.02 ml. […] The bromodomain concentration in the eluates was measured by qPCR.

BRD4-BD2 = molecular target: T2, BRD4-BD2 (Homo sapiens, UniProt O60885); test: Binding affinity to BRD4-BD2 (bromoKdELECT assay)
T2 construct: made in house; host or cells: T7 phage grown in E. coli host derived from BL21
Description: Exemplary compounds were tested for ability to bind to BRD4-BD2.
Compounds were tested using a bromoKdELECT assay. T7 phage strains displaying bromodomains were grown in parallel in 24-well blocks in an E. coli host derived from the BL21 strain. E. coli were grown to log-phase and infected with T7 phage from a frozen stock (multiplicity of infection=0.4) and incubated with shaking at 32° C. until lysis (90-150 minutes). The lysates were centrifuged (5,000×g) and filtered ([…]) to remove cell debris. Streptavidin-coated magnetic beads were treated with biotinylated small molecule or acetylated peptide ligands for 30 minutes at room temperature to generate affinity resins for bromodomain assays. The liganded beads were blocked with excess biotin and washed with blocking buffer (SeaBlock (Pierce), 1% BSA, 0.05% Tween 20, 1 mM DTT) to remove unbound ligand and to reduce nonspecific phage binding. Binding reactions were assembled by combining bromodomains, liganded affinity beads, and test compounds in 1× binding buffer (17% SeaBlock, 0.33×PBS, 0.04% Tween 20, 0.02% BSA, 0.004% Sodium azide, 7.4 mM DTT). Test compounds were prepared as 1000× stocks in 100% DMSO. Kds were determined using an 11-point 3-fold compound dilution series with one DMSO control point. […] The bromodomain concentration in the eluates was measured by qPCR.

[1] = test system: T-Rex 293 cells having increased expression of estrogen receptor alpha protein; test: Cellular growth inhibition assay, T-Rex 293 cells, (+) doxycycline; type: cell-based; details: T-REx-293, 72 h, T-Rex 293 cells with doxycycline-induced ERα expression, 72 hours, CellTiter-Glo 2.0; read-out: (+) Dox TRex ERa (GI50)
Method in brief: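 Growth of a doxycycline-inducible ERα T-Rex 293 clone, induced or not with 3 ng/mL doxycycline, was followed for 72 h with test compound in hormone-depleted medium. CellTiter-Glo luminescence gave GI50.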

Row | SMILES | Kd (BRD4-BD1) [nM] | Kd (BRD4-BD2) [nM] | GI50 [1] [nM]
1 | CCN(CCCCCCCCNC(=O)C[C@@H]1N=C(c2ccc(Cl)cc2)c2c(sc(C)c2C)-n2c(C)nnc21)CCOc1ccc(C(=O)c2c(-c3ccc(O)cc3)sc3cc(O)ccc23)cc1 [I-2, (S)-2-(4-(4-chlorophenyl)-2,3,9-trimethyl-6H-thieno[3,2-f][1,2,4]triazolo[4,3-a][1,4]diazepin-6-yl)-N-(8-(ethyl(2-(4-(6-hydroxy-2-(4-hydroxyphenyl)benzo[b]thiophene-3-carbonyl)phenoxy)ethyl)amino)octyl)acetamide] | 50 to 500 | < 50 | 50 to 500
2 | CCN(CCOCCOCCNC(=O)C[C@@H]1N=C(c2ccc(Cl)cc2)c2c(sc(C)c2C)-n2c(C)nnc21)CCOc1ccc(C(=O)c2c(-c3ccc(O)cc3)sc3cc(O)ccc23)cc1 [I-3, (S)-2-(4-(4-chlorophenyl)-2,3,9-trimethyl-6H-thieno[3,2-f][1,2,4]triazolo[4,3-a][1,4]diazepin-6-yl)-N-(2-(2-(2-(ethyl(2-(4-(6-hydroxy-2-(4-hydroxyphenyl)benzo[b]thiophene-3-carbonyl)phenoxy)ethyl)amino)ethoxy)ethoxy)ethyl) acetamide] | < 50 | < 50 | 50 to 500
